# Publication PMC10359466, “Identification of a small-molecule inhibitor that selectively blocks DNA-binding by Trypanosoma brucei replication protein A1” (Nature Communications, 2023)
# Where “and” joins values, the source holds several entries; their conditions need not be identical. Equal entries are not always repeated. Entries after “also recorded” stand apart in the source; their conditions may differ. Where two headings read alike, the source gives them in different places.
# Legend:
# TbRPA1 DBD-AB S105T = assay: MST inhibition of ssDNA-binding activity, TbRPA1 DBD-AB S105T mutant; set-up: species or system T. brucei; conditions: dT32, 30 nM protein
# From the text: (§1) Samples were then loaded into MST capillaries.
# (§2) We used one site binding to obtain a dissociation constant (Kd) and standard 4-parameter logistic curve (Sigmoidal curve) analysis to obtain the IC50 value of JC-229. We used GraphPad Prism software.
# LmexRPA1 DBD-AB = assay: EMSA inhibition of ssDNA binding, LmexRPA1 DBD-AB; set-up: species or system L. mexicana
# Description: Increasing concentrations of recombinant protein (from 0.05 to 100 nM) were incubated with 2 nM of 5´IRDye800-labeled oligo in binding buffer (20 mM Tris, pH 7.5, 10 mM NaCl, 10 mM MgCl2, 2 mM dithiothreitol (DTT), 10% glycerol, and 0.1 mg/ml BSA) for 15 min at room temperature. About 4 μl of 6x Orange dye (Sigma) was added to the 20 μl reaction, and from that, 8 μl was separated on a non-denaturing polyacrylamide gel in 1x Tris-Borate-EDTA (TBE, Invitrogen) buffer; 4% gel for RPA complex and 8% for DBD-AB, DBD-A, or DBD-B proteins. Gels were pre-run for 1 h at a constant 100 V. Protein–ssDNA complex and unbound ssDNA were separated by running the gel at a constant 80 V at 4 °C in the dark and then visualized using LI-COR Odyssey imaging system and quantified with ImageJ software.
# Samples were separated on a non-denaturing polyacrylamide gel and analyzed as described above in ssDNA-binding assay.
# TbRPA complex [1] = target: T1, TbRPA complex (Trypanosoma brucei brucei, UniProt Q384B5); assay: EMSA inhibition of ssDNA binding, TbRPA complex
# T1 sequence (Q38DK0 entry or part of it): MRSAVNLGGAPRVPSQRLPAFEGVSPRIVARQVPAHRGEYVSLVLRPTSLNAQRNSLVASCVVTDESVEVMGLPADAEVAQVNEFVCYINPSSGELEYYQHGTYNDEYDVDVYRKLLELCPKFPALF
# T1 sequence (Q57ZN9 entry or part of it, further chain): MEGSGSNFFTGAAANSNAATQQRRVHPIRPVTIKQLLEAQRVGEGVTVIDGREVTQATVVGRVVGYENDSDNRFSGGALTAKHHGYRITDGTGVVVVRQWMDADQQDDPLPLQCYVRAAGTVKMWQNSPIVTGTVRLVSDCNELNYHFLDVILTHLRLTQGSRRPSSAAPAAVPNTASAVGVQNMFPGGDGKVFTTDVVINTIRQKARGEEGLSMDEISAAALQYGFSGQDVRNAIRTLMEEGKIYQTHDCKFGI
# T1 sequence (Q384B5 entry or part of it): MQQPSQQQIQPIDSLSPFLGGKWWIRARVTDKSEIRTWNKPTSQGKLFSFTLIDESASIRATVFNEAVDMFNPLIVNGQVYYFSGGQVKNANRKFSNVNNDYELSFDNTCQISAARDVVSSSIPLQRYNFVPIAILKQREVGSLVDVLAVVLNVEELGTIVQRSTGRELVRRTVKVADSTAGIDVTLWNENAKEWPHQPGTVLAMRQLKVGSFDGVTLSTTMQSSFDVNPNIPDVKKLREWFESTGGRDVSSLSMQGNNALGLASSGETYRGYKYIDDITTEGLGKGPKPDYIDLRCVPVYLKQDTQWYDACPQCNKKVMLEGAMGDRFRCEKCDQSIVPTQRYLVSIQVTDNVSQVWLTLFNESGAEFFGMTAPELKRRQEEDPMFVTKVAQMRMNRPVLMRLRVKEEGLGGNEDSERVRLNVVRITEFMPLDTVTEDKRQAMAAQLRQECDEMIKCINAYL
# T. brucei cells [2] = assay: Microscopic analysis of treated cells (DAPI); type: cell-based, Trypanosoma brucei; conditions: 10 µM
# Description: For microscopic analysis, untreated or JC-229 treated cells were seeded, and fixed with 1% paraformaldehyde for 10 min at room temperature. Cells were then washed with 1x PBS and stained with DAPI (0.5 µg/ml) (Sigma). Images were captured using fluorescence microscopy (EVOS M5000, Thermo Fisher Scientific) at 40x magnification and edited with Adobe Photoshop.
# HsRPA complex = target: T2, HsRPA complex (Homo sapiens, UniProt P27694); assay: EMSA inhibition of ssDNA binding, HsRPA complex
# T2 construct: made in house; host or cells: E. coli BL21
# T2 sequence (P27694 whole entry): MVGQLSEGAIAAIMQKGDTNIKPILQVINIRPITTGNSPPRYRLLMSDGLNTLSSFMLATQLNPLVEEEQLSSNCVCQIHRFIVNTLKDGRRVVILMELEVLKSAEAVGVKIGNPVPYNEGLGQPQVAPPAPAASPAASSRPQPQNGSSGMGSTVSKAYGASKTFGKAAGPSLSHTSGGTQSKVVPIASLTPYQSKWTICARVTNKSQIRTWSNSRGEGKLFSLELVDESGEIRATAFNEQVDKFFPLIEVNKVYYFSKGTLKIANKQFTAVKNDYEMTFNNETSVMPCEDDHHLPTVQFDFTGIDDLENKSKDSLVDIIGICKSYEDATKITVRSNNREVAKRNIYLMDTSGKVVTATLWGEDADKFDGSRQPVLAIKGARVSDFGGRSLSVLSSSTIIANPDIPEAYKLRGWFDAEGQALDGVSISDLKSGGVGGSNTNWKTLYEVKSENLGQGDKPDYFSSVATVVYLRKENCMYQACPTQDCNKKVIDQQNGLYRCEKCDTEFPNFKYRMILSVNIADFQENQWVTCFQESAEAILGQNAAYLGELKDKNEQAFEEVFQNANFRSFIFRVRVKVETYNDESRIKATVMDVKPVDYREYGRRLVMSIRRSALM
# T2 sequence (P15927 whole entry partner): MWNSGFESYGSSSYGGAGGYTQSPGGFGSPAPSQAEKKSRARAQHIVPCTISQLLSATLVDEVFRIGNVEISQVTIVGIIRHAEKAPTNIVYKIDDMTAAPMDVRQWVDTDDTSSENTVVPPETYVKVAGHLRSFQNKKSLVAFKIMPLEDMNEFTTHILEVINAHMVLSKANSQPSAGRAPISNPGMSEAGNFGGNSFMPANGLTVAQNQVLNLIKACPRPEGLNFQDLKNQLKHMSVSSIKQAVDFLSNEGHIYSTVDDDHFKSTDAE
# T2 sequence (P35244 whole entry partner): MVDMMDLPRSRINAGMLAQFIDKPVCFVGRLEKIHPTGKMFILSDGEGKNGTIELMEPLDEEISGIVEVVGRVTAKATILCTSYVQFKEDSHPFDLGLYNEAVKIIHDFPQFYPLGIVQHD
# HsRPA1 DBD-AB [3] = target: T3, HsRPA1 DBD-AB (Homo sapiens, UniProt P27694); assay: MST inhibition of ssDNA-binding activity, HsRPA1 DBD-AB; conditions: dT32, MST
# T3 construct: were generated by PCR-amplifying the DBD-AB domain and cloning into a pET28a vector; made in house; host or cells: E. coli BL21
# T3 sequence (P27694 181-427 limits assumed): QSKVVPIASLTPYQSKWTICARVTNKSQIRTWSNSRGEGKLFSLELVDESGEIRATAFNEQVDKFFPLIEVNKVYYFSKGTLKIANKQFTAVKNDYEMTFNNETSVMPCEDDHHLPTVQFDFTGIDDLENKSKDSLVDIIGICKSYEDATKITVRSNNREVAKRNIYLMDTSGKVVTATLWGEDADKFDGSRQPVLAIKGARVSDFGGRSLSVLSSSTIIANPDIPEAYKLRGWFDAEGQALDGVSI
# From the text: as §1, §2
# T. brucei cells [4] = assay: AlamarBlue cell viability / growth inhibition of T. brucei
# Description: Synergy H1 microplate reader (BioTek) was used with 560/590 nm (excitation/emission) filter settings and relative fluorescence unit (RFU) values were obtained. The percentage of viable cells were calculated from the RFU values.
# Trypanosome cells were seeded at 1 × 10^3 cells/ml density in 180 µl in a 96-well culture plate in triplicate. […] DMSO was used as a vehicle control at 0.0075%.
# TcRPA1 DBD-AB [5] = assay: MST inhibition of ssDNA-binding activity, TcRPA1 DBD-AB; set-up: species or system T. cruzi; conditions: dT32, 30 nM protein
# From the text: as §1, §2
# TbRPA complex [6] = target: T1, TbRPA complex; assay: MST inhibition of ssDNA-binding activity, TbRPA complex; set-up: species or system T. brucei
# From the text: as §1, §2
# TbRPA1 DBD-AB [7] = target: T4, TbRPA1 DBD-AB (Trypanosoma brucei brucei, UniProt Q384B5); assay: EMSA inhibition of ssDNA binding, TbRPA1 DBD-AB; conditions: 0.625-80 µM, 5´IRDye800-dT32
# T4 sequence (Q384B5 entry or part of it): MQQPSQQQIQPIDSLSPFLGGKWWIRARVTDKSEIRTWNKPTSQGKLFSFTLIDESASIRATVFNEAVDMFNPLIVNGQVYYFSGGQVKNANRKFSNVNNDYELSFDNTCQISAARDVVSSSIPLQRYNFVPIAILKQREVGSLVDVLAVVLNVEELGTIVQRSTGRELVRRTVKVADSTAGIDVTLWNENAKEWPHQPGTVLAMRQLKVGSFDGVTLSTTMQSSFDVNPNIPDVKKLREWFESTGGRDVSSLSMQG
# HEK293 = assay: AlamarBlue cell viability of HEK293 cells; type: cell-based, human; conditions: for EC50: HEK293, 72 h
# Description: To determine the inhibitory effect of JC-229 on human cells, HeLa and HEK293 cells were suspended in 180 μl D-MEM with 10% FBS and plated at a density of 2 × 10^4 cells/ml in triplicate. […] Percent viability was plotted using GraphPad Prism software. […] We estimated the EC50 values using the concentration of JC-229 that causes a 50% reduction of cell viability (inhibitor vs. normalized response, variable slope).
# TcRPA1 DBD-AB T105S = target: T5, TcRPA1 DBD-AB T105S (Trypanosoma cruzi, UniProt Q4DXC9, T105S); assay: MST inhibition of ssDNA-binding activity, TcRPA1 DBD-AB T105S mutant; set-up: species or system T. cruzi
# T5 sequence (Q4DXC9 1-247 T105S): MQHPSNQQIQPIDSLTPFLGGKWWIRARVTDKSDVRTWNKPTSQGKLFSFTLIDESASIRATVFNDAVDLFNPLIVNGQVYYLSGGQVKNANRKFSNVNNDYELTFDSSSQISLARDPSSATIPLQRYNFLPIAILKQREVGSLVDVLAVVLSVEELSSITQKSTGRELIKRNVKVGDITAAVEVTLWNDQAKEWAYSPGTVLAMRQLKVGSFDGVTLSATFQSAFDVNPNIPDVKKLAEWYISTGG
# From the text: as §1, §2
# HsRPA1 DBD-AB [8] = target: T3, HsRPA1 DBD-AB; assay: EMSA inhibition of ssDNA binding, HsRPA1 DBD-AB; conditions: highest concentration 80 µM
# [9] = system: TbRPA complex containing S105T mutation; type: binding, T. brucei; conditions: dT32
# TbRPA1 DBD-AB [10] = target: T4, TbRPA1 DBD-AB; assay: MST inhibition of ssDNA-binding activity, TbRPA1 DBD-AB; conditions: 4-PL
# From the text: as §1, §2
# T. brucei cells [11] = assay: Cell-cycle analysis by PI staining and flow cytometry; type: cell-based, Trypanosoma brucei; conditions: 10 µM
# Description: About 10 million cells were collected, fixed with ice-cold 70% ethanol, and incubated with 50 μg/ml PI (Sigma-Aldrich) and 200 μg/ml RNase A (Sigma-Aldrich) in 1x PBS (Corning) at 37 °C for 30 min in the dark. Samples were analyzed by flow cytometry ([…], BD Biosciences) and FlowJo.
# TcRPA1 DBD-AB [12] = assay: EMSA inhibition of ssDNA binding, TcRPA1 DBD-AB; set-up: species or system T. cruzi
structure (smiles),measurement,setting,value
"Cc1ccc(C(=O)Nc2ccc(Cl)c(Cl)c2)cc1S(=O)(=O)Nc1ccc(Cl)c(Cl)c1 [JC-229, N-(3,4-dichlorophenyl)−3-(N-(3,4-dichlorophenyl)sulfamoyl)−4-methylbenzamide]","IC50, inhibition of TbRPA1 DBD-AB S105T ssDNA binding",TbRPA1 DBD-AB S105T,No inhibition; also recorded: did not inhibit
same,Inhibition of LmexRPA1 DBD-AB ssDNA binding (EMSA),LmexRPA1 DBD-AB,did not inhibit
same,Inhibition of TbRPA complex binding to ssDNA (EMSA),TbRPA complex [1],inhibited
same,Microscopic analysis of treated cells,T. brucei cells [2],leads to cell death
same,Effect on binding of HsRPA complex to ssDNA (EMSA),HsRPA complex,no effect
same,"IC50, inhibition of HsRPA1 DBD-AB ssDNA binding",HsRPA1 DBD-AB [3],No inhibition; also recorded: no inhibitory effect
same,Effect on parasite proliferation,"T. brucei cells [4]; 50 µM, 3 days, AlamarBlue",abolished parasite proliferation
same,EC50,"T. brucei cells [4]; Trypanosoma brucei, 72 h, read-out: EC50 (T. brucei growth inhibition), WT T. brucei, 72 h, AlamarBlue, standard 4-PL curve",6.6 µM
same,EC50,"T. brucei cells [4]; Trypanosoma brucei, 72 h, read-out: EC50 (T. brucei), 0.5-50 μM, 72 h, AlamarBlue, inhibitor vs. normalized response, variable slope (Fig. 3f)",6.54 µM
same,EC50,"T. brucei cells [4]; Trypanosoma brucei, read-out: EC50, WT (WT/WT), Fig. 8d WT strain, 72 h, [Inhibitor] vs. norm response, variable slope",5.68 µM
same,EC50,"T. brucei cells [4]; Trypanosoma brucei, read-out: EC50, WT (WT/WT), Suppl. Table 5-B, Sigmoidal, 4-PL",5.65 µM
same,EC50,"T. brucei cells [4]; read-out: EC50 (T. brucei growth inhibition), WT T. brucei, 72 h, AlamarBlue, standard 4-PL curve",6.58 µM and 6 µM
same,EC50,"T. brucei cells [4]; read-out: EC50 (T. brucei), 0.5-50 μM, 72 h, AlamarBlue, inhibitor vs. normalized response, variable slope (Fig. 3f)",6.5 µM
same,EC50,"T. brucei cells [4]; read-out: EC50, WT (WT/WT), Fig. 8d WT strain, 72 h, [Inhibitor] vs. norm response, variable slope",5.7 µM
same,"IC50, inhibition of TcRPA1 DBD-AB ssDNA binding",TcRPA1 DBD-AB [5],No inhibition; also recorded: did not inhibit
same,IC50,"TbRPA complex [6]; dT20, 25 nM complex, MST (Supplementary Fig. 11d)",0.0339 µM and ~0.0339 µM
same,IC50,"TbRPA complex [6]; dT32, 25 nM complex, MST (Fig. 5d)",0.0245 µM
same,IC50,"TbRPA complex [6]; dT32, 25 nM complex, MST (Supplementary Fig. 11d, 18g)",0.0339 µM and ~0.0339 µM
same,Inhibition of ssDNA binding of TbDBD-AB (EMSA),TbRPA1 DBD-AB [7],inhibited by JC-229 in a dose-dependent manner
same,Inhibition of HEK293 at EC50 to T. brucei,HEK293; 6.5 µM,barely inhibited
same,EC50,"HEK293; Homo sapiens, 0.5-50 μM, 72 h, AlamarBlue, inhibitor vs. normalized response, variable slope (Fig. 3f)",18 µM
same,EC50,"HEK293; Homo sapiens, 72 h, Sigmoidal, 4-PL (Suppl. Table 1-B)",10.3 µM
same,inhibition at 50 µM,"HEK293; Homo sapiens, HEK293, 50 µM, 72 h, read-out: Inhibition of HEK293 at maximum concentration",< 100%
same,IC50,TcRPA1 DBD-AB T105S,159 µM
same,Inhibition of ssDNA binding of HsDBD-AB (EMSA),HsRPA1 DBD-AB [8],did not inhibit
same,Effect on ssDNA binding of TbRPA S105T mutant complex (EMSA),[9],not affected
same,IC50,"TbRPA1 DBD-AB [10]; dT12, 30 nM protein",2.8 µM
same,IC50,"TbRPA1 DBD-AB [10]; dT20, 30 nM protein",0.881 µM
same,IC50,"TbRPA1 DBD-AB [10]; dT32, 30 nM protein",0.228 µM
same,Sub-G1 population,T. brucei cells [11]; 32 h,~45%
same,Cells that lost the bulk of their DNA,T. brucei cells [11]; 48 h,~97%
same,Inhibition of TcRPA1 DBD-AB ssDNA binding (EMSA),TcRPA1 DBD-AB [12],did not inhibit
